Patent US6737383B1, “Herbicidal oxadiazolidines” (priority 1999, dated 2004)

Tests used:
crabgrass = test: Test B pre/postemergence crabgrass; assay type: in vivo, Digitaria sanguinalis
How it was run: (§1)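 Response is a visual 0-to-10 score relative to untreated plants, where 0 means no effect and 10 means complete control, taken twelve to sixteen days after application. Treatments went onto soil at planting and onto foliage of 1- to 4-leaf plants, using a surfactant-containing non-phytotoxic solvent.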

morningglory = test: Test B pre/postemergence morningglory; assay type: in vivo, Ipomoea hederacea
How it was run: as §1

bamyardgrass = test: Test B flood test barnyardgrass; assay type: in vivo, Echinochloa crus-galli
How it was run: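 Plants were grown to the 2-leaf stage before treatment with test chemical, then held in a greenhouse for twelve to sixteen days. Injury was visually rated against untreated controls on a 0–10 scale, where 0 is no effect and 10 is complete control.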

blackgrass = test: Test B pre/postemergence blackgrass; assay type: in vivo, Alopecurus myosuroides
How it was run: as §1

[1] = Preemergence, Rate 250 g/ha, scale of 0 to 10 where 0 is no effect and 10 is complete control
[2] = Preemergence, Rate 500 g/ha, scale of 0 to 10 where 0 is no effect and 10 is complete control
[3] = Rate 62 g/ha, Postemergence, scale of 0 to 10 where 0 is no effect and 10 is complete control
[4] = Rate 125 g/ha, Preemergence, scale of 0 to 10 where 0 is no effect and 10 is complete control
[5] = Rate 500 g/ha, Postemergence, scale 0 to 10, 0 no effect, 10 complete control
[6] = Preemergence, Rate 62 g/ha, scale of 0 to 10 where 0 is no effect and 10 is complete control
[7] = Rate 62 g/ha, headed Pre-emergence (flood test species), scale 0 to 10 (0 no effect, 10 complete control)
[8] = Rate 125 g/ha, Pre-emergence, flood test species, scale 0 to 10 where 0 is no effect and 10 is complete control
[9] = Rate 250 g/ha, Pre-emergence, flood-test species, scale 0 to 10, 0 is no effect, 10 is complete control
[10] = Rate 500 g/ha, Pre-emergence, flood test species, scale 0 to 10 (0 no effect, 10 complete control)
[11] = Rate 62 g/ha, Postemergence, scale 0 to 10, 0 no effect, 10 complete control
[12] = Rate 125 g/ha, Postemergence, scale of 0 to 10 where 0 is no effect and 10 is complete control
[13] = Rate 250 g/ha, Postemergence, scale of 0 to 10 where 0 is no effect and 10 is complete control
[14] = Pre-emergence, Rate 1000 g/ha, scale 0 to 10 (0 no effect, 10 complete control)

SMILES	Crabgrass plant response rating (crabgrass; [1])	Morningglory plant response rating (morningglory; [6])	Morningglory plant response rating (morningglory; [1])	Barnyardgrass plant response rating (bamyardgrass; [8])	Barnyardgrass plant response rating (bamyardgrass; [9])	Barnyardgrass plant response rating (bamyardgrass; [10])	Blackgrass plant response rating (blackgrass; [6])	Blackgrass plant response rating (blackgrass; [1])	Blackgrass plant response rating (blackgrass; [5])	Crabgrass plant response rating (crabgrass; [6])	Crabgrass plant response rating (0 to 10 scale) (crabgrass; Preemergence, Rate 125 g/ha)	Crabgrass plant response rating (crabgrass; [2])	Crabgrass plant response rating (crabgrass; [11])	Crabgrass plant response rating (crabgrass; [12])	Plant response rating, Crabgrass (crabgrass; [13])	Morningglory plant response rating (0 to 10 scale) (morningglory; Preemergence, Rate 125 g/ha)	Morningglory plant response rating (morningglory; [2])	Morningglory plant response rating (morningglory; [11])	Morningglory plant response rating (morningglory; [12])	Blackgrass plant response rating (0 to 10 scale) (blackgrass; Preemergence, Rate 125 g/ha)	further results
CCC(C)N(C(=O)n1oc(=O)n(-c2ccccc2C)c1=O)c1ccc(F)cc1 (stereo not shown) [Compound 239]	10	0	0	0	0	0	0	4	3	–	–	–	–	–	–	–	–	–	–	–	Plant response rating, Crabgrass (crabgrass; [2]): 10; Crabgrass plant response rating (crabgrass; [3]): 0; Crabgrass plant response rating (crabgrass; [4]): 7; Plant response rating (0 to 10; 0 is no effect, 10 is complete control), Crabgrass (crabgrass; Rate 250 g/ha, Postemergence): 2; Crabgrass plant response rating (crabgrass; [5]): 6; Plant response rating, Morningglory (morningglory; [2]): 0; Morningglory plant response rating (morningglory; [3]): 1; Morningglory plant response rating (morningglory; [4]): 0; Plant response rating (0 to 10; 0 is no effect, 10 is complete control), Morningglory (morningglory; Rate 250 g/ha, Postemergence): 3; Morningglory plant response rating (morningglory; [5]): 9; Barnyardgrass plant response rating (bamyardgrass; [7]): 0; Plant response rating, Blackgrass (blackgrass; [2]): 4; Blackgrass plant response rating (blackgrass; [3]): 0; Blackgrass plant response rating (blackgrass; Rate 125 g/ha, Postemergence, scale 0 to 10): 0; Blackgrass plant response rating (blackgrass; [4]): 3; Plant response rating (0 to 10; 0 is no effect, 10 is complete control), Blackgrass (blackgrass; Rate 250 g/ha, Postemergence): 2
Cc1ccccc1-n1c(=O)on(C(=O)N(c2ccncc2)C(C)C)c1=O [Compound 301]	0	0	0	0	0	0	0	0	0	0	0	0	0	0	0	0	0	0	0	0	Plant response rating, Morningglory (morningglory; [13]): 0; Barnyardgrass plant response rating (bamyardgrass; [7]): 0; Blackgrass plant response rating (blackgrass; [2]): 0; Blackgrass plant response rating (blackgrass; [11]): 0; Blackgrass plant response rating (blackgrass; [12]): 0; Plant response rating, Blackgrass (blackgrass; [13]): 0
Cc1ccccc1-n1c(=O)on(C(=O)N(c2ccc3ccccc3c2)C(C)C)c1=O [Compound 306]	0	0	0	0	0	0	0	0	0	0	0	0	0	0	0	0	0	2	2	0	Barnyardgrass plant response rating (bamyardgrass; [14]): 0; Blackgrass plant response rating (blackgrass; [2]): 0; Blackgrass plant response rating (blackgrass; [11]): 0; Blackgrass plant response rating (blackgrass; [12]): 0; Plant response rating, Blackgrass (blackgrass; [13]): 0
CC(C)N(C(=O)n1oc(=O)n(CC2CCCC2)c1=O)c1ccc(F)cc1 [Compound 322]	5	0	0	3	7	–	0	5	–	1	2	7	0	0	2	0	0	4	4	0	Plant response rating, Crabgrass (crabgrass; [5]): 5; Plant response rating, Morningglory (morningglory; [13]): 7; Plant response rating, Morningglory (morningglory; [5]): 8; Barnyardgrass plant response rating (bamyardgrass; [14]): 9; Blackgrass plant response rating (blackgrass; [2]): 7; Blackgrass plant response rating (blackgrass; [11]): 0; Blackgrass plant response rating (blackgrass; [12]): 0; Plant response rating, Blackgrass (blackgrass; [13]): 1; Plant response rating, Blackgrass (blackgrass; [5]): 8
